Source: publication PMC5034864 (Molecular microbiology, 2012)

Legend:
Experiment in all cases: FRET of YPet-PilZ-CyPet fusion protein, titration
Assay type in all cases: binding
[1] = biological target: BcsA (STM3619) PilZ domain (Salmonella enterica, UniProt Q93IN2)
PA4324 = PA4324 (Pseudomonas aeruginosa, UniProt Q9HW77)
PA3353 = PA3353 (Pseudomonas aeruginosa, UniProt Q9HYP3)
YcgR (STM1798) = YcgR (STM1798) (Salmonella enterica, UniProt Q8ZP19)
Sequence of YcgR (STM1798) (Q8ZP19 whole entry): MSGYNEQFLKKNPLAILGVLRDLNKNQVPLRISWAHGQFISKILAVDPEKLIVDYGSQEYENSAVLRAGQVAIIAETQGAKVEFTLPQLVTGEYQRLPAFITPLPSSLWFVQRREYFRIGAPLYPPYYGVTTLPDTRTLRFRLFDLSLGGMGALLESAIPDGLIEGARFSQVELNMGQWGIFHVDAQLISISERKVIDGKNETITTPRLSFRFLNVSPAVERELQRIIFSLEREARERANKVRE

Sequence of BcsA (STM3619) PilZ domain (Q93IN2 691-791): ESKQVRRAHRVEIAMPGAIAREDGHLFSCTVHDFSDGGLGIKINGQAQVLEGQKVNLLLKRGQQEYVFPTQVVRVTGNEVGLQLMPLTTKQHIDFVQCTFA

For `Nc1nc2c(ncn2[C@@H]2O[C@@H]3CO[P@](=O)(O)O[C@H]4[C@@H](O)[C@H](n5cnc6c(=O)[nH]c(N)nc65)O[C@@H]4CO[P@](=O)(O)O[C@H]3[C@H]2O)c(=O)[nH]1` [c-di-GMP], the Kd [1] was 8.24 ± 0.238 µM, the Kd (PA4324) was 0.735 ± 0.474 µM and the Kd (PA3353) was 0.088 ± 0.017 µM. The Kd (YcgR (STM1798)) was 0.191 ± 0.018 µM.
